The NIST ThermoML archive (doi:10.1021/je1001945)
± gives the expanded uncertainty stated by the source.

Details: Crystal; visual observation

Normal melting temperature: 215 ± 1 °C
SMILES: c1ccc2cc3ccccc3cc2c1 [anthracene]
